The numbers were not newly measured in US20220193441A1, “ENERGY AUGMENTATION STRUCTURES, EMITTERS OR COLLECTORS, FOR USE IN NON-INVASIVE IN-SITU PHOTOBIOMODULATION” (IMMUNOLIGHT, LLC, priority 2019, published 2022), which cites them from elsewhere.

The conditions of series [1]: clinical use.
The test system of another series is tumors. Conditions: in vivo.
Series [2] has as its system epidermal growth factor receptor. Conditions: higher UVA light doses, with versus without trimethyl psoralen.

For the compound `Oc1cccc(-c2c3nc(c(-c4cccc(O)c4)c4ccc([nH]4)c(-c4cccc(O)c4)c4nc(c(-c5cccc(O)c5)c5ccc2[nH]5)CC4)C=C3)c1` [Foscan, Tetra (m-hydroxyphenyl) chlorin], in series [1], the “duration of skin photosensitivity” value is given as “approximately 2 weeks”.
Turning to `CC(=O)[O-].CC(=O)[O-].CCc1c(CC)c2cc3nc(cnc4cc(OCCOCCOCCOC)c(OCCOCCOCCOC)cc4ncc4nc(cc1[n-]2)C(CCCO)=C4C)C(C)=C3CCCO.O.[Lu+3]` [Lutetium texaphryin, Motexafin lutetium], in the series on tumors, the “selectivity for tumors compared to normal tissues” value is given as “one of the greatest reported selectivities for tumors”.
Take `Cc1cc2cc3c(C)cc(=O)oc3c(C)c2o1` [trimethyl psoralen]: in series [2], the “inhibition of 125I-EGF specific binding” value is on record as “higher efficiency”.
